Experimental findings from ChEMBL document CHEMBL1154377, “Evaluation of basic, heterocyclic ring systems as templates for use as potassium competitive acid blockers (pCABs)” (Bioorg Med Chem Lett, 2009) are described below.

Each structure is given as a SMILES string. The source made the active and inactive calls. No cut-off for these calls is given here.

A short description of data set [1]: Intrinsic clearance in rat liver microsomes. The data set is classed as ADME, Microsome.
Data set [2] is described as follows: Intrinsic clearance in dog liver microsomes. The data set is classed as ADME, Canis lupus familiaris, Microsome. (In general: Liver microsomes are a subcellular fraction often used to study metabolism.)
A short description of data set [3]: Intrinsic clearance in human liver microsomes. In kind it is ADME, Microsome.
Data set [4] can be described thus: Inhibition of H+/K+ ATPase in parietal cells assessed as inhibition of histamine-stimulated [14C]aminopyrine accumulation.
Data set [5] in a line: Inhibition of H+/K+ ATPase at pH 7.4.
The nature of data set [6]: Dissociation constant, pKa of the compound. In kind it is physicochemical.
A short description of data set [7]: Inhibition of H+/K+ ATPase in parietal cells assessed as inhibition of pentagastrin-stimulated [14C]aminopyrine accumulation at 50 nM. In kind it is cell-based.
Data set [8] in a line: Chromatographic hydrophobicity index at pH 7.4 by fast gradient HPLC. In kind it is physicochemical. The following applies: buffer.
Data set [9] can be described thus: Inhibition of H+/K+ ATPase in parietal cells assessed as inhibition of pentagastrin-stimulated [14C]aminopyrine accumulation at 1 uM. In kind it is cell-based.
Data set [10] addresses T1, Cytochrome P450 1A2 (Homo sapiens, UniProt P05177).
T1 sequence (P05177 whole entry): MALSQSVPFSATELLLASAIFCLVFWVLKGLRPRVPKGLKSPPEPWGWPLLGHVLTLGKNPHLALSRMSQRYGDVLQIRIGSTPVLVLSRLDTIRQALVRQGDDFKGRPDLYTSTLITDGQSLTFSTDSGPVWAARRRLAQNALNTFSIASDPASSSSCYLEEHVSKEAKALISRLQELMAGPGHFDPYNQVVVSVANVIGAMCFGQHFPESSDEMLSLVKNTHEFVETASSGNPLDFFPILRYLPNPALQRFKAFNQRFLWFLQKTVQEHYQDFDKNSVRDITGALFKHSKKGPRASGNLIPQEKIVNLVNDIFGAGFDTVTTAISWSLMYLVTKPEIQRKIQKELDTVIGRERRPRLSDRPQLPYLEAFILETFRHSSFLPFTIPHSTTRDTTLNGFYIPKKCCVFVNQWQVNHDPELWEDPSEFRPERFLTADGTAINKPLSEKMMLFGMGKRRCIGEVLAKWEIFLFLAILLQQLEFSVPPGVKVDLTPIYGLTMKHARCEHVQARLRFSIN
The data set can be described thus: Inhibition of CYP1A2. In kind it is ADME.

Data set [11] concerns the target Cytochrome P450 2C19 (Homo sapiens, UniProt P33261). The data set can be described thus: Inhibition of CYP2C19. The data set is classed as ADME.
For data set [12], the target named is Cytochrome P450 2D6 (Homo sapiens, UniProt P10635). The data set can be described thus: Inhibition of CYP2D6. In kind it is ADME.
In data set [13] the target is T2, Cytochrome P450 3A4 (Homo sapiens, UniProt P08684). The data set can be described thus: Inhibition of CYP3A4 using diethoxyfluorescein substrate. The data set is classed as ADME.
The target in data set [14] is T2, Cytochrome P450 3A4. The data set can be described thus: Inhibition of CYP3A4 using 7-benzyloxyquinoline substrate. In kind it is ADME.
Data set [15] concerns the target Cytochrome P450 2C9 (Homo sapiens, UniProt P11712).
A short description of data set [16]: Inhibition of H+/K+ ATPase in parietal cells assessed as inhibition of pentagastrin-stimulated [14C]aminopyrine accumulation at 50 µM.
Data set [17] concerns the target CYP3A4 (Homo sapiens, UniProt P08684). The data set can be described thus: Inhibition of CYP3A4 assessed as ratio of IC50 at 0 mins to IC50 at 10 mins using diethoxyfluorescein substrate. In kind it is ADME. The note with it: probe diethoxyfluorescein; read-out: Ratio IC50.
Data set [18] has as its target CYP2D6 (Homo sapiens, UniProt P10635). The data set can be described thus: Inhibition of CYP2D6 assessed as ratio of IC50 at 0 mins to IC50 at 10 mins. In kind it is ADME. The following applies: read-out: Ratio IC50.

T2 sequence (P08684 whole entry): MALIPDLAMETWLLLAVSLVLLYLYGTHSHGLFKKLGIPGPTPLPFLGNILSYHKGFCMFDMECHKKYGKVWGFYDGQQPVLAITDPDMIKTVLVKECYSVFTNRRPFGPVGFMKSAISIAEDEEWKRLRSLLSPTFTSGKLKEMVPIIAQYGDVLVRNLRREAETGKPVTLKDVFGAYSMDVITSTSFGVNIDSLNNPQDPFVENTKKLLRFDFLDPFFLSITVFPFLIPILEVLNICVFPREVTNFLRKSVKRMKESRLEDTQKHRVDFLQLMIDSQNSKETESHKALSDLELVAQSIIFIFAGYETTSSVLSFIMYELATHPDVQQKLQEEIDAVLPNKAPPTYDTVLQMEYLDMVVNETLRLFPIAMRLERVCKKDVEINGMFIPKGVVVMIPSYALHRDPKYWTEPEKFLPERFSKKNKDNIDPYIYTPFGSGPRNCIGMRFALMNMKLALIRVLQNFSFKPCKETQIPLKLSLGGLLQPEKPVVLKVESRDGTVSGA
Chain of Cytochrome P450 2C19 (P33261 whole entry): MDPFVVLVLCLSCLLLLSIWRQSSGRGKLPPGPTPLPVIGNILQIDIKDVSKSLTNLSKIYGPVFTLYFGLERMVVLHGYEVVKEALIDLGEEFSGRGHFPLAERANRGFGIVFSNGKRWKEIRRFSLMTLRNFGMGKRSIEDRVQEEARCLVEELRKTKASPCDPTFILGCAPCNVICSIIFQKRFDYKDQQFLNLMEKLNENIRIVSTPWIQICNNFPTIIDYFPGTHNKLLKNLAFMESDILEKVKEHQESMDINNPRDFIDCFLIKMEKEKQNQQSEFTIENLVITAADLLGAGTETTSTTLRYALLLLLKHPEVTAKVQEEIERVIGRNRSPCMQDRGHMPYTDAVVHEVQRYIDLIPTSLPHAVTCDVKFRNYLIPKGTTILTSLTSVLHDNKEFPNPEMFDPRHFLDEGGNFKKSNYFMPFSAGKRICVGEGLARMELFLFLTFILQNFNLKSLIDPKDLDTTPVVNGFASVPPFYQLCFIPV
Chain of Cytochrome P450 2D6 (P10635 whole entry): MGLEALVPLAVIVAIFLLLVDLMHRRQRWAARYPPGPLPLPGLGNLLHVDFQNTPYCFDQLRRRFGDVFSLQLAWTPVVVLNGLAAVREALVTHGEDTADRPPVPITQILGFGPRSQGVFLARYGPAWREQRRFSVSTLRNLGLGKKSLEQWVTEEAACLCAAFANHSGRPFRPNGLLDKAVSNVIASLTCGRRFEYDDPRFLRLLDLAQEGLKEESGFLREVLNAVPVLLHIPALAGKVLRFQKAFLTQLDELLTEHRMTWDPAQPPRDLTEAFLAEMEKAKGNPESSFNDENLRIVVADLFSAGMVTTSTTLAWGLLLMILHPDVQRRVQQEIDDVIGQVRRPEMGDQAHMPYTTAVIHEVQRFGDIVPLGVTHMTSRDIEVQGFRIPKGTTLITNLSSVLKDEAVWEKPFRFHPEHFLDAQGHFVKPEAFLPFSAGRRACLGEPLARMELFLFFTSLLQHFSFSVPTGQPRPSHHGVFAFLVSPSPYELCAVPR
Chain of Cytochrome P450 2C9 (P11712 whole entry): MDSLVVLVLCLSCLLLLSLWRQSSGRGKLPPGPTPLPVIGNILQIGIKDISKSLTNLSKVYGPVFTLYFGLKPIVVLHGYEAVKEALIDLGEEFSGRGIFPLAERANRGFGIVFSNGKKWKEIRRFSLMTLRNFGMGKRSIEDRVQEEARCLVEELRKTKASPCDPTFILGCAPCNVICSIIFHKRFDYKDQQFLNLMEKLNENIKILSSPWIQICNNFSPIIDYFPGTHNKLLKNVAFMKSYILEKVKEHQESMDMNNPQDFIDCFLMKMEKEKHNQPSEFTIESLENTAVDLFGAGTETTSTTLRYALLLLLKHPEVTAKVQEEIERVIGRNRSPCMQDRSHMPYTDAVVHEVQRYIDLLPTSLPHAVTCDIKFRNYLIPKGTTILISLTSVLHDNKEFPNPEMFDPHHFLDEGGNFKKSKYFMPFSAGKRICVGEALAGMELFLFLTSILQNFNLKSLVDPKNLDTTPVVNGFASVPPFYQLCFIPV
Chain of CYP3A4 (P08684 whole entry): as the sequence (P08684 whole entry) above
Chain of CYP2D6 (P10635 whole entry): as the sequence (P10635 whole entry) above

`CCc1cccc(C)c1CNc1cc(C(N)=O)cn2c(C)c(C)nc12`: the CLint scaled (in general, the rate of metabolic loss divided by the concentration) in data set [1] was found to be 14 mL/min/kg; in data set [2], 3 mL/min/kg; in data set [3], 6.5 mL/min/kg. Also, in data set [4], the IC50 (in general, the midpoint of a concentration-inhibition curve) is 0.0234 µM.

For the compound `Cc1cccc(C)c1CNc1nccc2c(C)c[nH]c12`, the pIC50 (as a rule, the negative decadic logarithm of the IC50, by convention in mol/L) in [5] is 9. In addition, the pKa (in general, the pH at which an ionisable group is half protonated) in data set [6] (read-out: pKa) was 8.71. Further, the inhibition (as a rule, the relative decrease from the control value, in per cent) in data set [7] was found to be 92.5%.

On to `Cc1cccc(C)c1CNc1cccn2c(C)nnc12`, for which the pIC50 in data set [5] amounted to 4. Also, the chromatographic logD (commonly a lipophilicity value derived from retention on a column) in [8] stood at 3.5. The pIC50 entry in [9] is “inactive”.

`Cc1cccc(C)c1CNc1nccc2c1nc(C)n2C` displayed a pIC50 in data set [5] of 5.3. Also, the half-maximal inhibitory concentration (IC50) in [10] was 31 µM; in data set [11] it was 27 µM; in [12] it was below 0.1 µM; in [13], 12 µM; in [14] it was 21 µM; in [15], 68 µM. Moreover, the IC50 in [4] was 0.0741 µM. In addition, the values for the CLint scaled in data set [1], in data set [2] and in [3] were 14 mL/min/kg, 6.5 mL/min/kg and 3.4 mL/min/kg, respectively. Besides, the pKa in data set [6] (read-out: pKa) amounted to 7.49. For the same compound, the chromatographic logD in [8] is 2.09.

As for `Cc1cccc(C)c1CNc1cc(C(=O)NCCO)cn2c(C)c(C)nc12` [LINAPRAZAN], the CLint scaled in [1] was 4 mL/min/kg; in [2], 0.9 mL/min/kg; in [3] it was 1.3 mL/min/kg. In data set [6] (read-out: pKa), the pKa was determined as 6.27. In data set [8], the chromatographic logD came to 2.14. Besides, the 50% inhibitory concentration (IC50) in data set [4] is 0.0562 µM.

As for `Cc1cccc(C)c1CNc1ccnc2c1cc(C)n2C`, the pIC50 in data set [5] amounted to 4.8. Further, the pKa in data set [6] (read-out: pKa) stood at 7.42. Moreover, the chromatographic logD in data set [8] came to 3.28. Moreover, the inhibition in data set [16] amounted to 36%.

On to `Cc1[nH]c2c(NCc3ccccc3)nccc2c1C`, for which the negative logarithm of the IC50 (pIC50) in [5] is on record as 8.4. Moreover, in data set [6] (read-out: pKa), the pKa was found to be 8.79. In addition, the inhibition in [7] was determined as 98.5%.

Turning to `Cc1cccc(C)c1CNc1nccc2c(C)c(C)[nH]c12`, the pIC50 in [5] is reported as 9.4. For the same compound, the IC50 in data set [10] is 14 µM; in data set [11], 1.8 µM; in data set [12] it was below 0.1 µM; in data set [13] it was 9 µM; in data set [14], 9.6 µM; in data set [15], 33 µM. Besides, the IC50 in [4] is 0.0708 µM. In addition, the figures for the CLint scaled in data set [1], in data set [2] and in [3] were 50 mL/min/kg, 19 mL/min/kg and 5 mL/min/kg, respectively. The compound further yielded a chromatographic logD in data set [8] of 2.29. Moreover, the inhibition in data set [7] was found to be 67.3%.

`Cc1cccc(C)c1CNc1nccc2c1cc(C)n2C` came in with a pIC50 in [5] of 6.8. Moreover, the concentration for half-maximal inhibition (IC50) is 41 µM in data set [10]; 6.9 µM in data set [11]; below 0.1 µM in data set [12]; 3.1 µM in data set [13]; 4.3 µM in data set [14]; 66 µM in data set [15]. The intrinsic metabolic clearance (CLint scaled) in [1] was 28 mL/min/kg; in [2], 17 mL/min/kg; in data set [3], 3.8 mL/min/kg. In addition, the pKa in [6] (read-out: pKa) turned out to be 9.14. This compound also yielded a chromatographic logD in data set [8] of 2.04. Moreover, in data set [16], the inhibition was determined as 22%.

Consider `Cc1c(C)n(C[C@H]2C[C@@H]2C)c2c(OCc3ccc(F)cc3)nncc12`, for which the negative logarithm of the IC50 (pIC50) in data set [5] is given as 6.8. The IC50 in data set [10] is 1.2 µM; in data set [11], 5.1 µM; in [12], 4.4 µM; in [13], 6 µM; in data set [14] it was 14 µM; in data set [15] it was 0.8 µM. In addition, the IC50 in data set [4] was 0.282 µM. Moreover, the IC50 shift was 1.2 in [17] and 0.6 in data set [18]. In addition, the CLint scaled in data set [1] came out at 30 mL/min/kg; in [2] it was 38 mL/min/kg; in data set [3] it was 16 mL/min/kg.

In turn, `Cc1cccc(C)c1CNc1nc(-c2ccccc2)cc2c(C)c(C)[nH]c12` yielded a negative logarithm of the IC50 (pIC50) in data set [5] of 6.3. In addition, the 50% inhibitory concentration (IC50) was 3.7 µM in data set [10]; 0.3 µM in data set [11]; 0.6 µM in data set [12]; 7.7 µM in data set [13]; 6.6 µM in data set [14]; 6.7 µM in data set [15]. For the same compound, the IC50 in data set [4] was 0.316 µM. Also, the values for the intrinsic clearance (CLint scaled) in data set [1] and in data set [3] were 3.9 mL/min/kg and below 0.5 mL/min/kg, respectively. Besides, the pKa entry in [6] is given as “Insoluble”. This compound also yielded a chromatographic logD in data set [8] of 5.31.
